For 22 compounds, IC50 results are on record in patent US20240343704A1, “HALO-SUBSTITUTED AMINO PYRIDINE COMPOUNDS AS INHIBITORS OF THE HAEMATOPOIETIC PROGENITOR KINASE 1 (HPK1)” (priority 2021, published 2024).

The experiment deals with T1, Recombinant (1-346) HPK1 (h) (Homo sapiens, UniProt Q92918).
T1 construct: Recombinant (1-346) HPK1 (h) is incubated with 8 mM MOPS pH 7.0
T1 sequence (Q92918 1-346): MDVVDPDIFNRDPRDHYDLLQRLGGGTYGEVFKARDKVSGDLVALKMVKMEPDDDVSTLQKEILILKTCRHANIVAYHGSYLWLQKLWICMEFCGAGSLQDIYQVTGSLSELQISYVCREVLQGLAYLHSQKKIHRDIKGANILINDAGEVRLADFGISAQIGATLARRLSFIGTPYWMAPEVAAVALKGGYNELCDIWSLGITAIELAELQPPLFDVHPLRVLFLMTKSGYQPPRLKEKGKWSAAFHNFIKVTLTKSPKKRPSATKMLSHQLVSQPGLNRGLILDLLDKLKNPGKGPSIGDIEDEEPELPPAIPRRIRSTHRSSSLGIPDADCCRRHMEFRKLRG
In words: HPK1 Human STE Kinase Enzymatic Radiometric Assay. Format: biochemical. The settings on record: read-out: HPK1 IC50 nM Range*. How it is done: A stock solution of 10 mM of test compound is prepared in DMSO. The compound plate was prepared by 3-fold and 9-point serial dilutions. […] The reaction is initiated by The addition of the Mg/ATP mix. After incubation for 40 minutes at RT, the reaction is stopped by the addition of phosphoric acid to a concentration of 0.5%.
Regarding `CN(C)Cc1nc(-c2cc(-c3ccc4c(c3)CCNC4=O)c(N)nc2F)ccc1C1CCOCC1` [I-600, 6-(6′-amino-6-((dimethylamino)methyl)-2′-fluoro-5-(tetrahydro-2H-pyran-4-yl)-[2,3′-bipyridin]-5′-yl)-3,4-dihydroisoquinolin-1(2H)-one], the IC50 is 0.1 to 10 nM. The value for `Cc1nc2cc(-c3cc(-c4ccc([C@]56C[C@H]5CN(C)C6)cc4)c(F)nc3N)ccc2c(=O)[nH]1` [I-468, 7-(2-amino-6-fluoro-5-(4-((1S,5R)-3-methyl-3-azabicyclo[3.1.0]hexan-1-yl)phenyl)pyridin-3-yl)-2-methylquinazolin-4(3H)-one] was 11 to 100 nM; that for `Cc1[nH]c(=O)c2c(F)cc(-c3cc(-c4ccc(N5CCOCC5)c(CN(C)C)c4)c(F)nc3N)cc2c1F` [I-534, 6-(2-amino-5-(3-((dimethylamino)methyl)-4-morpholinophenyl)-6-fluoropyridin-3-yl)-4,8-difluoro-3-methylisoquinolin-1(2H)-one] was 11 to 100 nM.

On to `CCN(C)Cc1cc(-c2cc(-c3ccc4c(c3)CCNC4=O)c(N)nc2F)ccc1C1CCOCC1` [I-428, 6-(2-amino-5-(3-((ethyl(methyl)amino)methyl)-4-(tetrahydro-2H-pyran-4-yl)phenyl)-6-fluoropyridin-3-yl)-3,4-dihydroisoquinolin-1(2H)-one], for which the IC50 lay in the range of 11 to 100 nM.

As for `CC(C)N1CCN(c2ccc(-c3cc(-c4cc5c(F)c[nH]c(=O)c5cc4F)c(N)nc3F)cc2)CC1` [I-547, 6-(2-amino-6-fluoro-5-(4-(4-isopropylpiperazin-1-yl)phenyl)pyridin-3-yl)-4,7-difluoroisoquinolin-1(2H)-one], the IC50 is 0.1 to 10 nM. As for `Cc1nc2cc(-c3cc(-c4ccc(C5CCOCC5)c(CN(C)C)c4)c(F)nc3N)cc(F)c2c(=O)[nH]1` [I-490, 7-(2-amino-5-(3-((dimethylamino)methyl)-4-(tetrahydro-2H-pyran-4-yl)phenyl)-6-fluoropyridin-3-yl)-5-fluoro-2-methylquinazolin-4(3H)-one], the figure is 11 to 100 nM. The value for `CN(C)Cc1cc(-c2cc(-c3ccc4c(c3)CCNC4=O)c(N)nc2F)ccc1OCC1CCOCC1` [I-532, 6-(2-amino-5-(3-((dimethylamino)methyl)-4-((tetrahydro-2H-pyran-4-yl)methoxy)phenyl)-6-fluoropyridin-3-yl)-3,4-dihydroisoquinolin-1(2H)-one] was 11 to 100 nM; that for `C[C@H]1CN(c2ccc(-c3cc(-c4ccc5c(c4)CCNC5=O)c(N)nc3F)cc2CN2CCC2)CCO1` [I-598, (S)-6-(2-amino-5-(3-(azetidin-1-ylmethyl)-4-(2-methylmorpholino)phenyl)-6-fluoropyridin-3-yl)-3,4-dihydroisoquinolin-1(2H)-one] was 11 to 100 nM. The value for `CN(C)Cc1cc(-c2cc(-c3ccc4c(c3)CCNC4=O)c(N)nc2F)ccc1N1CCN(C(=O)OC(C)(C)C)CC1` [I-442, tert-butyl 4-(4-(6-amino-2-fluoro-5-(1-oxo-1,2,3,4-tetrahydroisoquinolin-6-yl)pyridin-3-yl)-2-((dimethylamino)methyl)phenyl)piperazine-1-carboxylate] was 0.1 to 10 nM. `CN(C)Cc1nc(-c2cc(-c3ccc4c(=O)[nH]cc(F)c4c3)c(N)nc2F)ccc1N1CCOCC1` [I-589, 6-(6′-amino-6-((dimethylamino)methyl)-2′-fluoro-5-morpholino-[2,3′-bipyridin]-5′-yl)-4-fluoroisoquinolin-1(2H)-one]: the IC50 was in the range of 0.1 to 10 nM.

Take `CN(C)Cc1cc(-c2cc(-c3ccc4c(=O)[nH]cc(F)c4c3)c(N)nc2F)ccc1N1CCOCC1` [I-480, 6-(2-amino-5-(3-((dimethylamino)methyl)-4-morpholinophenyl)-6-fluoropyridin-3-yl)-4-fluoroisoquinolin-1(2H)-one]: the IC50 was 11 to 100 nM. As for `Cc1c[nH]c(=O)c2ccc(-c3cc(-c4cccc(CN(C)C)c4)c(F)nc3N)cc12` [I-627, 6-(2-amino-5-(3-((dimethylamino)methyl)phenyl)-6-fluoropyridin-3-yl)-4-methylisoquinolin-1(2H)-one], the IC50 was 101 to 1000 nM. For `COC1CCN(Cc2cc(-c3cc(-c4ccc5c(c4)CCNC5=O)c(N)nc3F)ccc2C2CCOCC2)CC1` [I-540, 6-(2-amino-6-fluoro-5-(3-((4-methoxypiperidin-1-yl)methyl)-4-(tetrahydro-2H-pyran-4-yl)phenyl)pyridin-3-yl)-3,4-dihydroisoquinolin-1(2H)-one], the IC50 was in the range of 11 to 100 nM. `CNc1nc2cc(-c3cc(-c4ccc(N5CCN(C(C)C)CC5)cc4)c(F)nc3N)ccc2c(=O)[nH]1` [I-421, 7-(2-amino-6-fluoro-5-(4-(4-isopropylpiperazin-1-yl)phenyl)pyridin-3-yl)-2-(methylamino)quinazolin-4(3H)-one]: the IC50 was in the range of 11 to 100 nM. As for `CN(C)[C@@H]1COc2ccc(-c3cc(-c4ccc5c(=O)[nH]cc(F)c5c4)c(N)nc3F)cc21` [I-630, (S)-6-(2-amino-5-(3-(dimethylamino)-2,3-dihydrobenzofuran-5-yl)-6-fluoropyridin-3-yl)-4-fluoroisoquinolin-1(2H)-one], the figure is 11 to 100 nM; as for `CN(C)Cc1cc(-c2cc(-c3ccc4c(c3)CCNC4=O)c(N)nc2F)ccc1C1CCOCC1` [I-645, 6-(2-amino-5-(3-((dimethylamino)methyl)-4-(tetrahydro-2H-pyran-4-yl)phenyl)-6-fluoropyridin-3-y)-3,4-dihydroisoquinolin-1(2H)-one], 0.1 to 10 nM.

As to `COc1nc2cc(-c3cc(-c4ccc(N5CCN(C(C)C)CC5)cc4)c(F)nc3N)ccc2c(=O)[nH]1` [I-419, 7-(2-amino-6-fluoro-5-(4-(4-isopropylpiperazin-1-yl)phenyl)pyridin-3-yl)-2-methoxyquinazolin-4(3H)-one], the half-inhibitory concentration (IC50) was 11 to 100 nM.

As for `COC1CCN(Cc2cc(-c3cc(-c4ccc5c(c4)CCNC5=O)c(N)nc3F)ccc2N2CCOCC2)CC1` [I-510, 6-(2-amino-6-fluoro-5-(3-((4-methoxypiperidin-1-yl)methyl)-4-morpholinophenyl)pyridin-3-yl)-3,4-dihydroisoquinolin-1(2H)-one], the IC50 fell in the range of 11 to 100 nM.

Take `Nc1nc(F)c(-c2ccc(CN3CCOCC3)cc2)cc1-c1cc(F)c2c(c1)CCNC2=O` [I-360, 6-(2-amino-6-fluoro-5-(4-(morpholinomethyl)phenyl)pyridin-3-yl)-8-fluoro-3,4-dihydroisoquinolin-1(2H)-one]: the IC50 was 0.1 to 10 nM. The value for `Nc1nc(F)c(-c2ccc(OC3CCNCC3)c(C(F)(F)F)c2)cc1-c1ccc2c(c1)CCNC2=O` [I-190, 6-(2-amino-6-fluoro-5-(4-(piperidin-4-yloxy)-3-(trifluoromethyl)phenyl)pyridin-3-yl)-3,4-dihydroisoquinolin-1(2H)-one] was 11 to 100 nM. As for `Nc1nc(F)c(-c2ccc(N3CCOCC3)c(CN3CCC3)n2)cc1-c1ccc2c(c1)CCNC2=O` [I-578, 6-(6′-amino-6-(azetidin-1-ylmethyl)-2-fluoro-5-morpholino-[2,3′-bipyridin]-5′-yl)-3,4-dihydroisoquinolin-1(2H)-one], the figure is 0.1 to 10 nM; as for `Cn1cnnc1CC1(c2cccc(-c3cc(-c4ccc5c(c4)CCNC5=O)c(N)nc3F)c2)COC1` [I-638, 6-(2-amino-6-fluoro-5-(3-(3-((4-methyl-4H-1,2,4-triazol-3-yl)methyl)oxetan-3-yl)phenyl)pyridin-3-yl)-3,4-dihydroisoquinolin-1(2H)-one], 101 to 1000 nM.

By IC50 is commonly meant the point on the concentration scale where inhibition reaches its midpoint.
